# Laboratory results published in patent US20250263395A1, “COMPOUNDS THAT MEDIATE PROTEIN DEGRADATION AND METHODS OF USE THEREOF” (Monte Rosa Therapeutics AG, priority 2022, published 2025).
# Assays:
# CRBN-DDB1 = CRBN-DDB1 (Homo sapiens (Human), UniProt Q96SW2); assay: CRBN HTRF assay (Cy5-Thalidomide probe displacement); assay type: binding; details: CRBN-DDB1 2.5 nM, Cy5-Thalidomide 100 nM, 30 min; Ki from geometric mean IC50 by Cheng-Prusoff
# Summary of the method: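 HTRF displacement of Cy5-thalidomide probe (100 nM) from His-CRBN-DDB1 (2.5 nM) with anti-His terbium cryptate, in HEPES/NaCl/TCEP/EDTA/Tween20 buffer. 10-point 1:3 compound series, 30 min at ambient temperature; signal normalised to DMSO and lenalidomide controls, IC50 fitted and Ki derived by Cheng-Prusoff.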
# CDK2 = CDK2 (Homo sapiens (Human), UniProt P24941); assay: CDK2 NanoBiT assay (HiBiT-tagged CDK2 degradation); assay type: cell-based; details: C-terminal HiBiT tag on CDK2, LgBiT, 24 hours; for Dmax: HEK293, HEK293 clonal line
# Summary of the method: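 HEK293 line with CRISPR knock-in C-terminal HiBiT-tagged CDK2 and stable LgBiT, preincubated 16 h with live-cell substrate, then compound-treated 24 h at 37° C, 5% CO2 (30 μM stock). Luminescence normalized to plate negative and positive controls; EC50 from 3-parameter logistic fit, Hill slope 1.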
# Sequence of CRBN-DDB1 (Q96SW2 whole entry): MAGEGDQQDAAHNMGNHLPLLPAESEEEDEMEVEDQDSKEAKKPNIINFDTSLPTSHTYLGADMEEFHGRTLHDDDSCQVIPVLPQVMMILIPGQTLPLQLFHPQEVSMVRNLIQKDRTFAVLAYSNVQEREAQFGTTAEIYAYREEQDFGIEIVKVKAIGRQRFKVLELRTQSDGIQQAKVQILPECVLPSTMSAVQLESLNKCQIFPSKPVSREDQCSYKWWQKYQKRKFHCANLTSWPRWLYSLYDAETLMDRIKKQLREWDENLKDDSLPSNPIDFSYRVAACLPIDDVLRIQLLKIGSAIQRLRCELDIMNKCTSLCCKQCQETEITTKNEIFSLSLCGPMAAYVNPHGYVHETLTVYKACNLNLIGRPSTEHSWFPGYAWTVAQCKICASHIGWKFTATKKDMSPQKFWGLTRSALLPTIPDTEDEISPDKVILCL
# Sequence of CRBN-DDB1 (Q16531 whole entry partner): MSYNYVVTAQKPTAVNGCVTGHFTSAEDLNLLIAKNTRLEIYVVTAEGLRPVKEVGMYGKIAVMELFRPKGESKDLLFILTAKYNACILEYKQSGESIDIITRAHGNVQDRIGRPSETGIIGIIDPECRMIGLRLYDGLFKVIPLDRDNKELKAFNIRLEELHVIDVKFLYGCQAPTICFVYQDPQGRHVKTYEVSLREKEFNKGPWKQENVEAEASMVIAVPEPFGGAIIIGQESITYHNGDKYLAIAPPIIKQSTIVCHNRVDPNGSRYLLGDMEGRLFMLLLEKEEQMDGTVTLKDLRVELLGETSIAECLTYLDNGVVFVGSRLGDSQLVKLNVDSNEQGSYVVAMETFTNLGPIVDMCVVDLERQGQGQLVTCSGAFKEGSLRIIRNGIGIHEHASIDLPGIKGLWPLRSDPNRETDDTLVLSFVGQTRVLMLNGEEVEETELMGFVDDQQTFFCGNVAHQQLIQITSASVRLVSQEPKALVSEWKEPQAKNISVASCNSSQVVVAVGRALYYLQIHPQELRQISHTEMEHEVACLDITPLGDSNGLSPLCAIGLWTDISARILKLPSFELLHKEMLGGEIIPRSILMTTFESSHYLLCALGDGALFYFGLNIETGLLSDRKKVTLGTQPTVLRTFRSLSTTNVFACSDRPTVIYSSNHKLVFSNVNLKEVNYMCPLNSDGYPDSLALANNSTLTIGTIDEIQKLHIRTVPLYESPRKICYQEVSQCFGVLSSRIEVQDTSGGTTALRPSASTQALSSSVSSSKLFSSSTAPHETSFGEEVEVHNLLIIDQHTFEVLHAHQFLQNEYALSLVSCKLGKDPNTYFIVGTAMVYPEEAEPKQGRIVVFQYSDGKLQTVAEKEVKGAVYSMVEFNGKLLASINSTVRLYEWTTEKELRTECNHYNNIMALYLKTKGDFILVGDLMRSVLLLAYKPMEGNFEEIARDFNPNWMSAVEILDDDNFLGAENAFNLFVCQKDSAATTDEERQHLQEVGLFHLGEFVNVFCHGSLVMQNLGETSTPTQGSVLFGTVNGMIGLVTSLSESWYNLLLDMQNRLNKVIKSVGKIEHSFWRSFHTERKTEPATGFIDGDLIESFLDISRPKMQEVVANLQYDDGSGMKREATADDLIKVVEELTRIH
Compound,Ki (CRBN-DDB1) [nM],Dmax (CDK2) [%],CDK2 NanoBiT Dmax (%) (CDK2; HEK293 clonal line)
"C[C@@H]1[C@@H](Nc2nnc(-c3ccc(C(F)(F)F)cc3)o2)CN1c1cc(F)c(C2CCC(=O)NC2=O)c(F)c1 (stereo partly drawn) [Compound 141, 3-(2,6-difluoro-4-((2R,3S)-2-methyl-3-((5-(4-(trifluoromethyl)phenyl)-1,3,4-oxadiazol-2-yl)amino)azetidin-1-yl)phenyl)piperidine-2,6-dione]",100 to 1000,50 to 80,–
"O=C1CCC(c2c(F)cc(N3CC(Nc4nnc(-c5ccc(Cl)cc5)o4)C3)cc2F)C(=O)N1 (stereo not drawn) [Compound 93, 3-(4-(3-((5-(4-chlorophenyl)-1,3,4-oxadiazol-2-yl)amino)azetidin-1-yl)-2,6-difluorophenyl)piperidine-2,6-dione]",100 to 1000,> 80,–
"O=C1CCC(c2c(F)cc(N3CC(NC(=O)OCc4ccc(OC(F)(F)F)cc4)C3)cc2F)C(=O)N1 (stereo not drawn) [Compound 35, 4-(trifluoromethoxy)benzyl (1-(4-(2,6-dioxopiperidin-3-yl)-3,5-difluorophenyl)azetidin-3-yl)carbamate]",100 to 1000,> 80,–
"O=C1CCC(c2c(F)cc(N3C[C@@H](NC(=O)OCC4CC5(CCC5)C4)CC3=O)cc2F)C(=O)N1 (stereo partly drawn) [Compound 57, spiro[3.3]heptan-2-ylmethyl ((3S)-1-(4-(2,6-dioxopiperidin-3-yl)-3,5-difluorophenyl)-5-oxopyrrolidin-3-yl)carbamate]",100 to 1000,50 to 80,–
"O=C1CCC(c2c(F)cc(N3CC(NC(=O)OC4CN(S(=O)(=O)C5CC5)C4)C3)cc2F)C(=O)N1 (stereo not drawn) [Compound 42, 1-(cyclopropylsulfonyl)azetidin-3-yl (1-(4-(2,6-dioxopiperidin-3-yl)-3,5-difluorophenyl)azetidin-3-yl)carbamate]",≤ 100,10 to 50,–
"O=C1CCC(c2c(F)cc(N3CC(NC(=O)OCC#CC4CC4)C3)cc2F)C(=O)N1 (stereo not drawn) [Compound 84, 3-cyclopropylprop-2-yn-1-yl (1-(4-(2,6-dioxopiperidin-3-yl)-3,5-difluorophenyl)azetidin-3-yl)carbamate]",≤ 100,10 to 50,–
"O=C1CC[C@H](c2c(F)cc(N3CC[C@@H](NC(=O)OCC4CC5(CCC5)C4)C3=O)cc2F)C(=O)N1 [Compound 54, spiro[3.3]heptan-2-ylmethyl ((R)-1-(4-((R)-2,6-dioxopiperidin-3-yl)-3,5-difluorophenyl)-2-oxopyrrolidin-3-yl)carbamate]",≤ 100,50 to 80,–
"N#Cc1ccc(C(=O)N2CC(OC(=O)NC3CN(c4cc(F)c(C5CCC(=O)NC5=O)c(F)c4)C3)C2)cc1 (stereo not drawn) [Compound 20, 1-(4-cyanobenzoyl)azetidin-3-yl (1-(4-(2,6-dioxopiperidin-3-yl)-3,5-difluorophenyl)azetidin-3-yl)carbamate]",≤ 100,10 to 50,–
"O=C1CCC(c2c(F)cc(N3CC(Nc4nnc(-c5ccc(OC(F)(F)F)cc5)o4)C3)cc2F)C(=O)N1 (stereo not drawn) [Compound 103, 3-(2,6-difluoro-4-(3-((5-(4-(trifluoromethoxy)phenyl)-1,3,4-oxadiazol-2-yl)amino)azetidin-1-yl)phenyl)piperidine-2,6-dione]",≤ 100,> 80,–
"CN(C(=O)C12CC(OC(=O)NC3CN(c4cc(F)c(C5CCC(=O)NC5=O)c(F)c4)C3)(C1)C2)c1cccc(Cl)c1 (stereo not drawn) [Compound 131, 3-((3-chlorophenyl)(methyl)carbamoyl)bicyclo[1.1.1]pentan-1-yl (1-(4-(2,6-dioxopiperidin-3-yl)-3,5-difluorophenyl)azetidin-3-yl)carbamate]",≤ 100,50 to 80,–
"CN(C)C(=O)N1CC[C@H](OC(=O)NC2CN(c3cc(F)c(C4CCC(=O)NC4=O)c(F)c3)C2)C1 (stereo partly drawn) [Compound 27, (S)-1-(dimethylcarbamoyl)pyrrolidin-3-yl (1-(4-(2,6-dioxopiperidin-3-yl)-3,5-difluorophenyl)azetidin-3-yl)carbamate]",≤ 100,10 to 50,–
"O=C1CCC(c2c(F)cc(N3CC(NC(=O)OC4CN(C(=O)N5CC6(CCC6)C5)C4)C3)cc2F)C(=O)N1 (stereo not drawn) [Compound 31, 1-(2-azaspiro[3.3]heptane-2-carbonyl)azetidin-3-yl (1-(4-(2,6-dioxopiperidin-3-yl)-3,5-difluorophenyl)azetidin-3-yl)carbamate]",≤ 100,50 to 80,–
"COc1c(N2CC(Nc3nnc(C4CC5(CCC5)C4)o3)C2)ccc(C2CCC(=O)NC2=O)c1Cl (stereo not drawn) [Compound 91, 3-(2-chloro-3-methoxy-4-(3-((5-(spiro[3.3]heptan-2-yl)-1,3,4-oxadiazol-2-yl)amino)azetidin-1-yl)phenyl)piperidine-2,6-dione]",100 to 1000,> 80,–
"Cc1ccc(-c2nnc(NC3CN(c4cc(F)c(C5CCC(=O)NC5=O)c(F)c4)C3)o2)cc1 (stereo not drawn) [Compound 99, 3-(2,6-difluoro-4-(3-((5-(p-tolyl)-1,3,4-oxadiazol-2-yl)amino)azetidin-1-yl)phenyl)piperidine-2,6-dione]",100 to 1000,> 80,–
"COc1c(N2CC(Nc3nnc(-c4ccc(OC(F)(F)F)cc4)o3)C2)ccc(C2CCC(=O)NC2=O)c1F (stereo not drawn) [Compound 90, 3-(2-fluoro-3-methoxy-4-(3-((5-(4-(trifluoromethoxy)phenyl)-1,3,4-oxadiazol-2-yl)amino)azetidin-1-yl)phenyl)piperidine-2,6-dione]",100 to 1000,> 80,–
"Cc1ccc(N2CC(OC(=O)NC3CN(c4cc(F)c(C5CCC(=O)NC5=O)c(F)c4)C3)C2)nc1 (stereo not drawn) [Compound 79, 1-(5-methylpyridin-2-yl)azetidin-3-yl (1-(4-(2,6-dioxopiperidin-3-yl)-3,5-difluorophenyl)azetidin-3-yl)carbamate]",≤ 100,50 to 80,–
"Cc1cccc(N(C)C(=O)C23CC(OC(=O)NC4CN(c5cc(F)c(C6CCC(=O)NC6=O)c(F)c5)C4)(C2)C3)c1C (stereo not drawn) [Compound 114, 3-((2,3-dimethylphenyl)(methyl)carbamoyl)bicyclo[1.1.1]pentan-1-yl (1-(4-(2,6-dioxopiperidin-3-yl)-3,5-difluorophenyl)azetidin-3-yl)carbamate]",≤ 100,10 to 50,–
"COc1c(N2CC(NC(=O)OCC3CC4(CCC4)C3)C2)ccc(C2CCC(=O)NC2=O)c1F (stereo not drawn) [Compound 44, spiro[3.3]heptan-2-ylmethyl (1-(4-(2,6-dioxopiperidin-3-yl)-3-fluoro-2-methoxyphenyl)azetidin-3-yl)carbamate]",100 to 1000,> 80,–

# Next, values leading:
Ki (CRBN-DDB1) [nM],Dmax (CDK2) [%],CDK2 NanoBiT Dmax (%) (CDK2; HEK293 clonal line),Compound
≤ 100,50 to 80,–,"CN(C(=O)N1CC(OC(=O)NC2CN(c3cc(F)c(C4CCC(=O)NC4=O)c(F)c3)C2)C1)C1CC1 (stereo not drawn) [Compound 40, 1-(cyclopropyl(methyl)carbamoyl)azetidin-3-yl (1-(4-(2,6-dioxopiperidin-3-yl)-3,5-difluorophenyl)azetidin-3-yl)carbamate]"
≤ 100,10 to 50,–,"Cc1cc(Cl)ccc1N(C)C(=O)C12CC(OC(=O)NC3CN(c4cc(F)c(C5CCC(=O)NC5=O)c(F)c4)C3)(C1)C2 (stereo not drawn) [Compound 112, 3-((4-chloro-2-methylphenyl)(methyl)carbamoyl)bicyclo[1.1.1]pentan-1-yl (1-(4-(2,6-dioxopiperidin-3-yl)-3,5-difluorophenyl)azetidin-3-yl)carbamate]"
≤ 100,–,D (D represents Dmax value of >80%),O=C1CCC(c2c(F)cc(N3CC(NC(=O)OC45CC(C(=O)c6ccccc6)(C4)C5)C3)cc2F)C(=O)N1 (stereo not drawn) [Compound 4]
≤ 100,50 to 80,–,"Cc1ccc(N(C)C(=O)C23CC(OC(=O)NC4CN(c5cc(F)c(C6CCC(=O)NC6=O)c(F)c5)C4)(C2)C3)cc1 (stereo not drawn) [Compound 133, 3-(methyl (p-tolyl)carbamoyl)bicyclo[1.1.1]pentan-1-yl (1-(4-(2,6-dioxopiperidin-3-yl)-3,5-difluorophenyl)azetidin-3-yl)carbamate]"
≤ 100,10 to 50,–,"Cc1ccc(N(C)C(=O)N2CC(OC(=O)NC3CN(c4cc(F)c(C5CCC(=O)NC5=O)c(F)c4)C3)C2)cn1 (stereo not drawn) [Compound 109, 1-(methyl (6-methylpyridin-3-yl)carbamoyl) azetidin-3-yl (1-(4-(2,6-dioxopiperidin-3-yl)-3,5-difluorophenyl)azetidin-3-yl) carbamate]"
≤ 100,10 to 50,–,"CN(C)C(=O)N1CC(OC(=O)NC2CN(c3cc(F)c(C4CCC(=O)NC4=O)c(F)c3)C2)C1 (stereo not drawn) [Compound 45, 1-(dimethylcarbamoyl)azetidin-3-yl (1-(4-(2,6-dioxopiperidin-3-yl)-3,5-difluorophenyl)azetidin-3-yl)carbamate]"
≤ 100,10 to 50,–,"O=C1CCC(c2c(F)cc(N3CC(NC(=O)OC4CN(C(=O)c5ccccc5)C4)C3)cc2F)C(=O)N1 (stereo not drawn) [Compound 24, 1-benzoylazetidin-3-yl (1-(4-(2,6-dioxopiperidin-3-yl)-3,5-difluorophenyl)azetidin-3-yl)carbamate]"
≤ 100,50 to 80,–,"CN(C(=O)N1CC(OC(=O)NC2(C(F)(F)F)CN(c3cc(F)c(C4CCC(=O)NC4=O)c(F)c3)C2)C1)C1CC1 (stereo not drawn) [Compound 11, 1-(cyclopropyl(methyl)carbamoyl)azetidin-3-yl (1-(4-(2,6-dioxopiperidin-3-yl)-3,5-difluorophenyl)-3-(trifluoromethyl)azetidin-3-yl)carbamate]"
≤ 100,10 to 50,–,"CN(C)C(=O)C12CC(OC(=O)NC3CN(c4cc(F)c(C5CCC(=O)NC5=O)c(F)c4)C3)(C1)C2 (stereo not drawn) [Compound 76, 3-(dimethylcarbamoyl)bicyclo[1.1.1]pentan-1-yl (1-(4-(2,6-dioxopiperidin-3-yl)-3,5-difluorophenyl)azetidin-3-yl)carbamate]"
